Laboratory results taken from patent US20090306228A1, “ACTIVE AGENT DELIVERY SYSTEMS AND METHODS FOR PROTECTING AND ADMINISTERING ACTIVE AGENTS” (priority 2000, published 2009).
Where “and” joins values, the source holds several entries; their conditions need not be identical. Equal entries are not always repeated.

Tests used:
[1] = In vivo performance of polyglutamic acid-AZT conjugate lot TM-113, plasma AZT by ELISA; design: species or system Sprague-Dawley rats; conditions: for Plasma concentration of individual rats: Rat #1-#5
Procedure: […]. Polyglutarnic acid-AZT conjugate was given to five rats at a dose containing 15 mg/kg of AZT.

[2] = in vivo; conditions: male, Sprague-Dawley, rat, plasma, po
[3] = after oral administration; cited from earlier work
[4] = female, Sprague Dawley, rat, in vivo, po
[5] = biological target: pepsin (Sus scrofa, UniProt P00791); conditions: pig, 4 h, pH 1.2
Sequence of pepsin (P00791 60-385): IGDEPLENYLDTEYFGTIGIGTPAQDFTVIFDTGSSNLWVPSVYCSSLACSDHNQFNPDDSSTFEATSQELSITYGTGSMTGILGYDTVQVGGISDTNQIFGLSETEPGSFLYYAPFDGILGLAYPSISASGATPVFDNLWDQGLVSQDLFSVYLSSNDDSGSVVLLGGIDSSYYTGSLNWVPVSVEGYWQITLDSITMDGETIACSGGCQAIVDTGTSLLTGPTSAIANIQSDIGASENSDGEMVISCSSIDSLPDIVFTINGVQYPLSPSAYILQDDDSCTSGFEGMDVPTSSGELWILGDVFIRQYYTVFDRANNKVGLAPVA

[6] = test system: pancreatin; conditions: pig, 24 h, pH 7.5
[7] = test system: protease (type XIV, pronase); conditions: Streptomyces griseus, 24 h, pH 8.4
[8] = In vivo performance of polyserine-naltrexone conjugate lot BB-301, serum naltrexone by ELISA; conditions: oral capsule; for Serum concentration of individual rats: 3.6 mg naltrexone (12.9 mg conjugate BB-301), Rat #1-#5
[9] = In vivo performance of polyserine-naltrexone conjugate lot BB-272, serum naltrexone by ELISA; conditions: for Serum concentration of individual rats: 3.6 mg naltrexone (12 mg conjugate BB-272), Rat #1-#4
Procedure: No excipients were added to the capsules.

[10] = male, Sprague-Dawley, rat, plasma, po, 15 mg/kg
[11] = male, Sprague Dawley, rat, in vivo, po, 3.6 mg

Question: What does the source list for `Cc1cn([C@H]2C[C@H](N=[N+]=[N-])[C@@H](CO)O2)c(=O)[nH]c1=O` [AZT, 3′-azido-3′-deoxythymidine]?
Answer: AUC(0-t) [1, 10]: 4040 ng·h/mL; Cmax [1, 10]: 2390 ng/mL; Tmax [1, 10]: 30 min; concentration at 0 h ([1]; male, Sprague-Dawley, rat, plasma, po, 15 mg/kg, 15 mg/kg of AZT, lot TM-113, 0 hours): 7 ng/mL; concentration at 0.5 h ([1]; male, Sprague-Dawley, rat, plasma, po, 15 mg/kg, 15 mg/kg of AZT, lot TM-113, 0.5 hours): 2390 ng/mL; concentration at 3 h ([1]; male, Sprague-Dawley, rat, plasma, po, 15 mg/kg, 15 mg/kg of AZT, lot TM-113, 3 hours): 223 ng/mL; concentration at 5 h ([1]; male, Sprague-Dawley, rat, plasma, po, 15 mg/kg, 15 mg/kg of AZT, lot TM-113, 5 hours): 49 ng/mL; concentration at 8 h ([1]; male, Sprague-Dawley, rat, plasma, po, 15 mg/kg, 15 mg/kg of AZT, lot TM-113, 8 hours): 11 ng/mL; concentration at 12 h ([1]; male, Sprague-Dawley, rat, plasma, po, 15 mg/kg, 15 mg/kg of AZT, lot TM-113, 12 hours): 36 ng/mL; concentration at 24 h ([1]; male, Sprague-Dawley, rat, plasma, po, 15 mg/kg, 15 mg/kg of AZT, lot TM-113, 24 hours): 8 ng/mL; time at which AZT plasma levels spiked ([1]; oral, 15 mg/kg of AZT): 0.5 h; time for which plasma levels of AZT remained elevated ([1]; oral, 15 mg/kg of AZT, lot TM-113): < 3 h; Plasma concentration of individual rats ([1]; oral, 15 mg/kg of AZT, lot TM-113, 0 hours, 15 mg/kg): 6 ng/mL and 4 ng/mL and 2 ng/mL and 9 ng/mL and 14 ng/mL; Plasma concentration of individual rats ([1]; oral, 15 mg/kg of AZT, lot TM-113, 0.5 hours, 15 mg/kg): 4520 ng/mL and 2108 ng/mL and 2657 ng/mL and 1978 ng/mL and 690 ng/mL; Plasma concentration of individual rats ([1]; oral, 15 mg/kg of AZT, lot TM-113, 3 hours, 15 mg/kg): 598 ng/mL and 132 ng/mL and 200 ng/mL and 94 ng/mL and 93 ng/mL; Plasma concentration of individual rats ([1]; oral, 15 mg/kg of AZT, lot TM-113, 5 hours, 15 mg/kg): 79 ng/mL and 25 ng/mL and 78 ng/mL and 26 ng/mL and 39 ng/mL; Plasma concentration of individual rats ([1]; oral, 15 mg/kg of AZT, lot TM-113, 8 hours, 15 mg/kg): 16 ng/mL and 18 ng/mL and 12 ng/mL and 4 ng/mL and 5 ng/mL; Plasma concentration of individual rats ([1]; oral, 15 mg/kg of AZT, lot TM-113, 12 hours, 15 mg/kg): 101 ng/mL and 38 ng/mL and 28 ng/mL and 2 ng/mL and 6 ng/mL; Plasma concentration of individual rats ([1]; oral, 15 mg/kg of AZT, lot TM-113, 24 hours, 15 mg/kg): 13 ng/mL and 12 ng/mL and 4 ng/mL and 8 ng/mL and 3 ng/mL; Tmax [2]: 30 min

Question: For `CC1OC(OC2C(O)CC(OC3C(O)CC(O[C@H]4CCC5(C)C(CCC6[C@@H]5CC(O)C5(C)[C@@H](C7=CC(=O)OC7)CCC65O)C4)OC3C)OC2C)CC(O)C1O` (stereo partly drawn) [Digoxin, digoxin], which “time until an effect is evident” value [3] is on record?
Answer: 1 to 2 h

Question: For `NS(=O)(=O)c1cc(C(=O)O)c(NCc2ccco2)cc1Cl` [Furosemide], which “9 hour serum level as percent of its 3 hour level” value [4] is on record?
Answer: 59.8%

Question: Which results are given for `Cc1ccc(C)c(OCCCC(C)(C)C(=O)O)c1` [Gemfibrozil, 5-(2,5-dimethylphenoxy)-2,2-dimethylpentanoic acid]?
Answer: Stomach (simulator, release of active agent from peptide conjugate) [5]: 0%; Intestine (simulator, release of active agent from peptide conjugate) [6]: 3.60%; Pronase (release of active agent from peptide conjugate) [7]: 2%

Question: Which “Stomach (simulator, release of active agent from peptide conjugate)” value (from here on “Stomach”) [5] does the source give for `Nc1ccc(O)c(C(=O)O)c1` [Mesalamine, 5-amino-2-hydroxybenzoic acid] here?
Answer: 11%

Question: And the “Intestine (simulator, release of active agent from peptide conjugate)” value (“Intestine” below) [6]?
Answer: 10%

Question: And the “Pronase (release of active agent from peptide conjugate)” value (“Pronase” for short) [7]?
Answer: 46%

Question: With `CCN(CC)CCNC(=O)c1cc(Cl)c(N)cc1OC` [Metoclopramide] as the molecule, how does the “Stomach” value [5] read?
Answer: 0%

Question: What about the “Intestine” value [6] of the same molecule?
Answer: 95.20%

Question: What about the “Pronase” value [7] of the same molecule?
Answer: 6.50%

Question: Which “Stomach” value [5] does the source give for `Cc1ncc([N+](=O)[O-])n1CCO` [Metronidazole] here?
Answer: 20.20%

Question: What about the “Intestine” value [6] of the same molecule?
Answer: 64.30%

Question: What about the “Pronase” value [7] of the same molecule?
Answer: 28.90%

Question: For `O=C1CC[C@@]2(O)[C@H]3Cc4ccc(O)c5c4[C@@]2(CCN3CC2CC2)[C@H]1O5` [Naltrexone], which “Serum concentration of individual rats” value ([8]; 0.5 hours) is on record?
Answer: 39 ng/mL and 141 ng/mL and 128 ng/mL and 126 ng/mL and 142 ng/mL

Question: What about the “Serum concentration of individual rats” value ([8]; 3 hours) of the same molecule?
Answer: 91 ng/mL and 62 ng/mL and 44 ng/mL and 30 ng/mL and 46 ng/mL

Question: And the “Serum concentration of individual rats” value ([8]; 5 hours)?
Answer: 45 ng/mL and 193 ng/mL and 16 ng/mL and 8 ng/mL and 19 ng/mL

Question: What about the “Serum concentration of individual rats” value ([8]; 8 hours) of the same molecule?
Answer: 19 ng/mL and 6 ng/mL and 2 ng/mL and 5 ng/mL and 4 ng/mL

Question: And the “Serum concentration of individual rats” value ([8]; 12 hours)?
Answer: 3 ng/mL (2×) and 1 ng/mL and 2 ng/mL (2×)

Question: And the “Serum concentration of individual rats” value ([8]; 15 hours)?
Answer: 4 ng/mL and 1 ng/mL (2×) and 2 ng/mL (2×)

Question: What about the “Serum concentration of individual rats” value ([8]; 24 hours) of the same molecule?
Answer: 2 ng/mL (2×) and 1 ng/mL (2×) and 3 ng/mL

Question: And the “time at which naltrexone serum levels spiked” value ([8]; equal dose, lot BB-301)?
Answer: 0.5 h

Question: And the “time for which serum levels of naltrexone remained elevated” value ([8]; equal dose, lot BB-301)?
Answer: < 8 h

Question: And the concentration at 2 h [9, 11]?
Answer: 46 ng/mL

Question: What about the concentration at 4 h [9, 11] of the same molecule?
Answer: 11 ng/mL

Question: What about the concentration at 6 h [9, 11] of the same molecule?
Answer: 9 ng/mL

Question: What about the concentration at 9 h [9, 11] of the same molecule?
Answer: 3 ng/mL

Question: What about the “Serum concentration of individual rats” value ([9]; oral capsule, 2 hours) of the same molecule?
Answer: 33 ng/mL and 91 ng/mL and 37 ng/mL and 22 ng/mL

Question: And the “Serum concentration of individual rats” value ([9]; oral capsule, 4 hours)?
Answer: 6 ng/mL and 25 ng/mL and 12 ng/mL and 3 ng/mL

Question: What about the “Serum concentration of individual rats” value ([9]; oral capsule, 6 hours) of the same molecule?
Answer: 13 ng/mL and 10 ng/mL and 8 ng/mL and 6 ng/mL

Question: What about the “Serum concentration of individual rats” value ([9]; oral capsule, 9 hours) of the same molecule?
Answer: 3 ng/mL and 6 ng/mL and 2 ng/mL and 1 ng/mL

Question: What about the “Serum concentration of individual rats” value ([9]; oral capsule, 12 hours) of the same molecule?
Answer: 2 ng/mL (2×) and 1 ng/mL

Question: And the “Mean serum concentration +/- SD” value ([9]; oral capsule, 3.6 mg naltrexone, lot BB-272, 12 hours)?
Answer: 1 ± 1 ng/mL

Question: And the “time at which serum levels spiked” value ([9]; oral capsule, lot BB-272, 2 hours was the first measurement)?
Answer: 2 h
